In brackets after ≈: the same amount, converted by molar mass.
Key:
[1] = test system: Mycobacterium tuberculosis; assay: Antitubercular activity against Mycobacterium tuberculosis H37Rv ATCC 27294 by radiometric BACTEC 460 system; type: functional
Vero = assay: Cytotoxicity against african green monkey Vero cells; type: cell-based; conditions: Chlorocebus sabaeus

Structure (SMILES) | MIC [1] [µM] | IC50 (Vero) [µM]
C/C=C(/C)C(=O)O[C@@H]1[C@@H](O)C(C)(C)C[C@H]2C3=CC[C@@H]4[C@]56CC[C@](O)(OC5)C(C)(C)[C@@H]6CC[C@@]4(C)[C@]3(C)CC[C@@]12C(=O)O | 64 (≈ 37.4 µg/mL) | 
C/C=C(/C)C(=O)O[C@@H]1CC(C)(C)C[C@H]2C3=CC[C@@H]4[C@@]5(C)CCC(=O)C(C)(C)[C@@H]5CC[C@@]4(C)[C@]3(C)CC[C@@]12C(=O)O [LANTADENE A] | 32 (≈ 17.7 µg/mL) | 15
CO[C@H]1/C=C/O[C@@]2(C)Oc3c(C)c(O)c4c(O)c(c(/C=N/N5CCN(C)CC5)c(O)c4c3C2=O)NC(=O)/C(C)=C\C=C\[C@H](C)[C@H](O)[C@@H](C)[C@@H](O)[C@@H](C)[C@H](OC(C)=O)[C@@H]1C [RIFAMPIN] | 0.3 (≈ 0.247 µg/mL) | 
C/C=C(\C)C(=O)O[C@@H]1[C@@H](O)C(C)(C)C[C@H]2C3=CC[C@@H]4[C@]56CC[C@](O)(OC5)C(C)(C)[C@@H]6CC[C@@]4(C)[C@]3(C)CC[C@@]12C(=O)O | 128 (≈ 74.9 µg/mL) | 
CC1(C)CC[C@]2(C(=O)O)CC[C@]3(C)C(=CC[C@@H]4[C@]56CC[C@@](O)(OC5)C(C)(C)[C@@H]6CC[C@]43C)[C@@H]2C1 [LANTANOLIC ACID] | > 128 | 
C/C=C(/C)C(=O)O[C@@H]1CC(C)(C)C[C@H]2C3=CC[C@@H]4[C@]56CC[C@@](O)(OC5)C(C)(C)[C@@H]6CC[C@@]4(C)[C@]3(C)CC[C@@]12C(=O)O [CAMARIC ACID] | 64 (≈ 36.4 µg/mL) | 
CC(C)=CC(=O)O[C@@H]1[C@@H](O)C(C)(C)C[C@H]2C3=CC[C@@H]4[C@]56CC[C@](O)(OC5)C(C)(C)[C@@H]6CC[C@@]4(C)[C@]3(C)CC[C@@]12C(=O)O | 128 (≈ 74.9 µg/mL) | 
CC(C)=CC(=O)O[C@@H]1CC(C)(C)C[C@H]2C3=CC[C@@H]4[C@]56CC[C@@](O)(OC5)C(C)(C)[C@@H]6CC[C@@]4(C)[C@]3(C)CC[C@@]12C(=O)O [LANTANILIC ACID] | > 128 | 
CCC(C)C(=O)O[C@@H]1CC(C)(C)C[C@H]2C3=CC[C@@H]4[C@]56CC[C@](O)(OC5)C(C)(C)[C@@H]6CC[C@@]4(C)[C@]3(C)CC[C@@]12C(=O)O (stereo not given in full) | 128 (≈ 73.1 µg/mL) | 

— ChEMBL document CHEMBL1150218, “Antitubercular activity of triterpenoids from Lippia turbinata” (J Nat Prod, 2001)
